Here are results for one compound from paper PMC5765751 (Journal of the American Chemical Society, 2017).

The nature of this series: physchem. Type of series: physicochemical. To be noted: pH 6.

On to `O=C1NC(Cc2ccc(O)cc2)C(=O)NC1Cc1ccc(O)cc1` (stereo not shown) [cYY, 3,6-bis(4-hydroxybenzyl)piperazine-2,5-dione], for which the pKa (in general, the pH at which an ionisable group is half protonated) came out at 9.9 ± 0.02.
